Reference: PMC5665643, “CHIP as a membrane-shuttling proteostasis sensor” (eLife, 2017)

Key:
[1] = system: EGFP-CHIP-K30A; type III phosphatidylinositol-4 kinases (PI4KIII); experiment: Undocking of EGFP-CHIP-K30A from membranes by PI4KIII inhibitors; assay type: cell-based, murine; conditions: same cells followed upon addition of inhibitor; ***p<0.001, t-test; N = 3
Excerpt: Phospholipase D inhibitors FIPI, VU0155069 and CAY10594 were purchased from Caymen Chemicals (Ann Arbor, MI), wortmannin from Enzo (Farmingdale, NY), PI4KIIIβ inhibitor IN-10 from MedChem Express (Monmouth Junction, NJ), HSP70 inhibitor VER-155008 from Sigma-Aldrich (St. Louis, MO), HSP90 inhibitor 17-(Allylamino)−17-demethoxygeldanamycin (17-AAG) from Biomol (Germany). 1,2-dioleoyl-sn-glycero-3-phosphocholine (DOPC) and 1,2-dipalmitoyl-sn-glycero-3-phosphate (phosphatidic acid, PA) were from Avanti Polar Lipids (Alabaster, AL), 1,2-dipalmitoyl-sn-glycero-3-phosphoinositol-4-phosphate (phosphadtidylinositol-4-phosphate, PI4P) was from Echelon Bioscience (Salt Lake City, UT). All other chemicals were from Sigma-Aldrich if not indicated otherwise. […]
For microscopy analysis of CHIP localization, samples were not fixed. […] For quantification, fields of view were chosen randomly. […]
Membrane localization and Golgi morphology were analyzed manually using ImageJ from following numbers of cells (average of at least three independent experiments): 92 (Figure 1a), 142 (Figure 1d), 90 (Figure 1—figure supplement 1b), 125 (Figure 1—figure supplement 1c), 149 (Figure 1—figure supplement 1d), 84 (Figure 3c), 130 (Figure 5a), 206 (Figure 5g), 240 (Figure 5h), 93 (Figure 5—figure supplement 1d), and 137 (Figure 5—figure supplement 1j). […]

[2] = system: PI4KIII; conditions: at higher concentrations; ref Nakanishi et al., 1995; cited from earlier work

In the case of `COC[C@H]1OC(=O)c2coc3c2[C@@]1(C)C1=C(C3=O)[C@@H]2CCC(=O)[C@@]2(C)C[C@H]1OC(C)=O` [wortmannin], the “undocking of EGFP-CHIP-K30A from cellular membranes, wortmannin” value [1] is listed as “causes an acute undocking of EGFP-CHIP-K30A from cellular membranes” and the PI4KIII inhibition [2] is listed as “inhibits PI4KIII if used at higher concentrations”.
